14 compounds from article PMC3131451 (Journal of medicinal chemistry, 2010) can be followed below.

What is called IC50 is the concentration needed to halve the response being measured. A word on the GI50: it is the concentration that inhibits growth by half. The term inhibition denotes the relative decrease from the control value, in per cent. A higher inhibition goes with a response far below the control.

The target in one assay is T1, PDK1 (Homo sapiens, UniProt O15530).
T1 sequence (O15530 1-556): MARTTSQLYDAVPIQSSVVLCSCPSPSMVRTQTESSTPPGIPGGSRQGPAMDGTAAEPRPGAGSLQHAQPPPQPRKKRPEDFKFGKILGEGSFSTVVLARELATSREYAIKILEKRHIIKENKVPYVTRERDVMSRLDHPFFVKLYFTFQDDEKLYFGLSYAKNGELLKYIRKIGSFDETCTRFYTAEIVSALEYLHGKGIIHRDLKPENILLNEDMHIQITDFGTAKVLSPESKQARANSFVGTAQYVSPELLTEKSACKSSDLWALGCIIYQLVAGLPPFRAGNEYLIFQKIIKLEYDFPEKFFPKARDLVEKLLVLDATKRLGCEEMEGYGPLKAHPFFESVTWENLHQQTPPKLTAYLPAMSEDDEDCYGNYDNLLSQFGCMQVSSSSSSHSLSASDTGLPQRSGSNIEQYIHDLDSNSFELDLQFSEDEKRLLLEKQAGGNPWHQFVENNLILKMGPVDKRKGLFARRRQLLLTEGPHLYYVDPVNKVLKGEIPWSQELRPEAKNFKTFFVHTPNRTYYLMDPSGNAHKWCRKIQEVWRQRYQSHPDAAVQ
Put plainly: Z'-LYTE kinase activity assay PDK1. Type of assay: biochemical. The following applies: read-out: Kinase assay IC50 PDK1, ATP at Km.

The next assay concerns the target PI3Kα (PIK3CA/PIK3R1) (Homo sapiens, UniProt P42336). Briefly: LanthaScreen Eu kinase binding assay PI3Kα. The following applies: for activity in words, biochemical and cell-based assays: both in the biochemical and cell-based assays (Table 1). A general note: TR-FRET usually uses a lanthanide donor and a delayed reading to cut background.
A further assay has as its target mTOR (FRAP1) (Homo sapiens, UniProt P42345). Briefly: LanthaScreen Eu kinase binding assay mTOR. The following applies: read-out: Kinase assay IC50 mTOR.
For the next assay, the target named is PI-3Kα (Homo sapiens, UniProt P42336). Put plainly: SelectScreen Biochemical Kinase Profiling PI-3Kα. The following applies: in vitro displacement assays against the PI3K isoforms.
PI-3Kα, sequence (P42336 whole entry, canonical isoform): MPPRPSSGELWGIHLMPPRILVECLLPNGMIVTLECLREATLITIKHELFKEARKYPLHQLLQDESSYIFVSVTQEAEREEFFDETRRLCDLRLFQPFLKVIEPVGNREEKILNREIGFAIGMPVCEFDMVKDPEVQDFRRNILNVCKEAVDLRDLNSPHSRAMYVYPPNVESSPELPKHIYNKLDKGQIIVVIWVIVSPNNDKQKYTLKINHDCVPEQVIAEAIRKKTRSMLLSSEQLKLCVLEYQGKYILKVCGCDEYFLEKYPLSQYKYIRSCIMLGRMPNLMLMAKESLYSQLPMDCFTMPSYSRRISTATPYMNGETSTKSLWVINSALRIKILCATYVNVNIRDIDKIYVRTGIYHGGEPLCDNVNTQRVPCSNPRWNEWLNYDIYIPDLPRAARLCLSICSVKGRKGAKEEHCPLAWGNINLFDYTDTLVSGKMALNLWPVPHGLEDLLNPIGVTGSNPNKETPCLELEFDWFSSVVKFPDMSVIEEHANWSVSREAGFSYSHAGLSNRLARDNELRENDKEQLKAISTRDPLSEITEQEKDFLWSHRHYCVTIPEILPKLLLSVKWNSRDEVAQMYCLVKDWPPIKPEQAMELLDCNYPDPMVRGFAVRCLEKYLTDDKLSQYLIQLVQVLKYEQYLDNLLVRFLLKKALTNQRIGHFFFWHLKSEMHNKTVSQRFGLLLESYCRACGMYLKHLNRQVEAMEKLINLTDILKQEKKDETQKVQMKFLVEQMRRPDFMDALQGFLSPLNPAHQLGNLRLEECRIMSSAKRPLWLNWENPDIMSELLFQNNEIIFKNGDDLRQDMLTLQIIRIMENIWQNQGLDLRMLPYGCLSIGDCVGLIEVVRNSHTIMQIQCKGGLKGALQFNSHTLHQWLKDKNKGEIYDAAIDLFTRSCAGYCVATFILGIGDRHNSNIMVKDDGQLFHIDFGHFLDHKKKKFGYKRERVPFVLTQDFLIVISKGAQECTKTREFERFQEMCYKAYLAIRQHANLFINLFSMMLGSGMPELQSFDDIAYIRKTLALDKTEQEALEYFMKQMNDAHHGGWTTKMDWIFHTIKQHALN
PI-3Kα, sequence (P27986 whole entry partner, canonical isoform): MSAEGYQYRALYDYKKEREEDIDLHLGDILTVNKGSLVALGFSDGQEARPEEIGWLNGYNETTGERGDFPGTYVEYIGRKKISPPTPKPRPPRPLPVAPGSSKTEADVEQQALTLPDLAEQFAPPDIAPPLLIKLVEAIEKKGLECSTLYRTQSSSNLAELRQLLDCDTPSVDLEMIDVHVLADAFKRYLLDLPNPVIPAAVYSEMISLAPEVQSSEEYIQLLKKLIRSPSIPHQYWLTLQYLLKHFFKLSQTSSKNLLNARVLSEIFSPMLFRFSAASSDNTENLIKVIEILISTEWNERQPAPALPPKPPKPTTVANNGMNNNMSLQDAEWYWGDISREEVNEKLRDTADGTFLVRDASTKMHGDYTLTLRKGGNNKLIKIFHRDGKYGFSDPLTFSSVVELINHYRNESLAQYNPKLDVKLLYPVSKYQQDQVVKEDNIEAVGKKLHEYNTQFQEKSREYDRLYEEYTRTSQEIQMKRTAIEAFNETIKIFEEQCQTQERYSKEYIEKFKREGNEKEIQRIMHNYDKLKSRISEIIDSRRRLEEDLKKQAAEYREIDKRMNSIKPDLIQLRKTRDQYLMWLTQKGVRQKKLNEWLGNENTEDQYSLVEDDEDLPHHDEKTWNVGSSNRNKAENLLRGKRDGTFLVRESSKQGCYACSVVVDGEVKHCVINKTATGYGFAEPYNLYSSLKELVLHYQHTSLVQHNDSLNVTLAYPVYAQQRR
Assay [1] deals with Hela cervical carcinoma cells. Briefly: Anti-proliferative assay. Conditions: Homo sapiens, 72 h, read-out: Cell-based Assay GI50 Hela.
Another assay relates to PRAS40 [pS183]. Briefly: LanthaScreen cellular assay PRAS40 [pSer183]. The following applies: HEK293E, 1 h, read-out: Cell-based Assay IC50 PRAS40 [pS183].
A further assay concerns the target DNA-PK (Homo sapiens, UniProt P78527). Put plainly: Selectivity panel, kinase inhibition. Type of assay: biochemical.
Another assay relates to 314 protein kinases. Briefly: Selectivity panel against 314 protein kinases. The format is biochemical. The following applies: 10 µM, preliminary selectivity panel.
A further assay has as its system U87 glioblastoma cells. Briefly: 3D culture assay, U87 spheroids. Type of assay: cell-based, human. Conditions: 10 µM every day, total of 6 days.

PI3Kα (PIK3CA/PIK3R1), sequence (P42336 whole entry): as the sequence (P42336 whole entry, canonical isoform) above
PI3Kα (PIK3CA/PIK3R1), sequence (P27986 whole entry partner): as the sequence (P27986 whole entry partner, canonical isoform) above
mTOR (FRAP1), sequence (P42345 1360-2549 limits assumed): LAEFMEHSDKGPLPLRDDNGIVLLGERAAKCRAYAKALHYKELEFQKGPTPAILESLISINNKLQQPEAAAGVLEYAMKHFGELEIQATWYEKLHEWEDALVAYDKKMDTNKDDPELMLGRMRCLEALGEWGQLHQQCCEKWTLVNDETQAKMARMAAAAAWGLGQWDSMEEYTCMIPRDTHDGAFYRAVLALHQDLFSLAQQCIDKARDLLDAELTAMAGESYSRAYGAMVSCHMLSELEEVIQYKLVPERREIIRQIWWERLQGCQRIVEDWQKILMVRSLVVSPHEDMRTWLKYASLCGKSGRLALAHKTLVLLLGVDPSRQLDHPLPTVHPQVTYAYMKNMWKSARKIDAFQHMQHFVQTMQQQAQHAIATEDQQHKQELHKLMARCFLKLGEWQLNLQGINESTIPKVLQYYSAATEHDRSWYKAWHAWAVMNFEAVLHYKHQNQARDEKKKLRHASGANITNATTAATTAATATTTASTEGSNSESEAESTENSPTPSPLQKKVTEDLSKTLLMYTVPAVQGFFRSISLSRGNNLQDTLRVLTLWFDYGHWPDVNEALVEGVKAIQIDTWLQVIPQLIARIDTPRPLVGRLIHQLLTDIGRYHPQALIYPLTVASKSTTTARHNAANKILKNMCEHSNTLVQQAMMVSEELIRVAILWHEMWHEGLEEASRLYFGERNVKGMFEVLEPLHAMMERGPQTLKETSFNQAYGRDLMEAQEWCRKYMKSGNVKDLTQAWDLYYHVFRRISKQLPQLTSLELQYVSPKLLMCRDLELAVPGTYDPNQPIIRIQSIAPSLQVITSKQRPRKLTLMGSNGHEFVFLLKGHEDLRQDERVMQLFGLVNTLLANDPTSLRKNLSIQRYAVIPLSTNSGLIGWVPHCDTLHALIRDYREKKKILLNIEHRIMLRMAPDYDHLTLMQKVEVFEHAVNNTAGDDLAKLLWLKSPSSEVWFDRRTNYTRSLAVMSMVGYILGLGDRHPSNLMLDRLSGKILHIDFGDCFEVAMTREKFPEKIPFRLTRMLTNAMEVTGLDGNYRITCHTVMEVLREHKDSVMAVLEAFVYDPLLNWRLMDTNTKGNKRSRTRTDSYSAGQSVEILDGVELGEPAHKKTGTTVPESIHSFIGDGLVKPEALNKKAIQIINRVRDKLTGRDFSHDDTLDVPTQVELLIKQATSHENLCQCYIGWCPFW

For “3-(pyridin-2-ylethynyl)-1H-pyrazolo[3,4-b]pyridine [Compound 21]”, the concentration for half-maximal inhibition (IC50) at PDK1 was more than 50 µM; at PI3Kα (PIK3CA/PIK3R1) (read-out: Kinase assay IC50 PI3Kα, LanthaScreen Eu kinase binding assay), 9 µM; on mTOR (FRAP1), 5 µM.

With `Nc1ccc(C#Cc2n[nH]c3ccccc23)cc1` [Compound 6, 4-((1H-indazol-3-yl)ethynyl)aniline], at PI-3Kα, the “selectivity for α isoform over the β and γ isoforms” value was “about 100 fold”. This compound also came in with an IC50 in the assay on AKT [pT308] of 17.1 µM. In [1], the 50% growth inhibitory concentration (GI50) was found to be 3.6 µM.

In the assay on AKT [pT308], `C(#Cc1n[nH]c2ccccc12)c1ccccc1` [Compound 7, 3-(phenylethynyl)-1H-indazole] returned an IC50 of more than 100 µM. For the same compound, the “PI3Kα activity in words” value at PI3Kα (PIK3CA/PIK3R1) is “poor activity”.

As for `Fc1cc(F)cc(C#Cc2n[nH]c3ccccc23)c1` [Compound 8, 3-((3,5-difluorophenyl)ethynyl)-1H-indazole], the IC50 was more than 200 µM in the assay on PRAS40 [pS183] and more than 100 µM in the assay on AKT [pT308]. Further, the “PI3Kα activity in words” value at PI3Kα (PIK3CA/PIK3R1) is recorded as “poor activity”.

Turning to `C(#Cc1n[nH]c2ccccc12)c1ccncc1` [Compound 10, 3-(pyridin-4-ylethynyl)-1H-indazole], the inhibition at 10 µM against DNA-PK is more than 50%. Besides, in the assay on 314 protein kinases, the “share of 314 protein kinases showing ≥ 50% inhibition” value is recorded as “less than 10%”. In addition, the “U87 spheroid cell growth/proliferation (spheroid volumes)” value in the assay with U87 glioblastoma cells is on record as “strongly suppressed cell growth/proliferation”.

As for `CN(C)CC#Cc1n[nH]c2ccccc12` [Compound 11, 3-(1H-indazol-3-yl)-N,N-dimethylprop-2-yn-1-amine], the IC50 in the assay with AKT [pT308] was more than 100 µM. Besides, on PI3Kα (PIK3CA/PIK3R1), the “activity in words, biochemical and cell-based assays” value was “inactive”.

As to `C(#Cc1n[nH]c2ccccc12)c1ccccn1` [Compound 12, 3-(pyridin-2-ylethynyl)-1H-indazole], the IC50 in the assay with AKT [pT308] was more than 100 µM.

Take `C(#CC1CCCC1)c1n[nH]c2ccccc12` [Compound 14, 3-(cyclopentylethynyl)-1H-indazol]: the IC50 in the assay with AKT [pT308] is more than 50 µM. In addition, the “activity in words, biochemical and cell-based assays” value at PI3Kα (PIK3CA/PIK3R1) was “inactive”.

For the compound `C(#CC1CC1)c1n[nH]c2ccccc12` [Compound 15, 3-(cyclopropylethynyl)-1H-indazole], the IC50 with AKT [pT308] was more than 50 µM. Moreover, on PI3Kα (PIK3CA/PIK3R1), the “activity in words, biochemical and cell-based assays” value was “inactive”.

In the assay on AKT [pT308], `Nc1ccccc1C#Cc1n[nH]c2ccccc12` [Compound 16, 2-((1H-indazol-3-yl)ethynyl)aniline] came in with an IC50 of more than 100 µM.

In the assay on AKT [pT308], `FC(F)(F)c1cc(C#Cc2n[nH]c3ccccc23)cc(C(F)(F)F)c1` [Compound 17, 3-((3,5-bis(trifluoromethyl)phenyl)ethynyl)-1H-indazole] showed an IC50 of more than 100 µM. Besides, at PI3Kα (PIK3CA/PIK3R1), the “PI3Kα activity in words” value is “poor activity”.

Compound `C(#Cc1n[nH]c2ccccc12)c1ccsc1` [Compound 18, 3-(thiophen-3-ylethynyl)-1H-indazole] gave an IC50 in the assay on AKT [pT308] of more than 100 µM. The “PI3Kα activity in words” value on PI3Kα (PIK3CA/PIK3R1) is “poor activity”.

`N#Cc1ccc(C#Cc2n[nH]c3ccccc23)cc1` [Compound 19, 4-((1H-indazol-3-yl)ethynyl)benzonitrile] had an IC50 with AKT [pT308] of more than 50 µM. Moreover, the “PI3Kα activity in words” value at PI3Kα (PIK3CA/PIK3R1) is reported as “poor activity”.

For the compound `C(#Cc1n[nH]c2ncccc12)c1ccncc1` [Compound 20, 3-(pyridin-4-ylethynyl)-1H-pyrazolo[3,4-b]pyridine], at PI3Kα (PIK3CA/PIK3R1) (pyrazolopyridine analog compared with indazole 10), the “loss of PI3Kα activity versus compound 10” value is recorded as 10 fold.
